Entries after “also recorded” stand apart in the source; their conditions may differ.
B1: Q362A: FLAG-Ang2 protein modified form where glutamine at amino acid 362 (SEQ ID No. 42) is substituted by alanine (protein)
chain: MWQIVFFTLSCDLVLAAAYNNFRKSMDSIGKKQYQVQHGSCSYTFLLPEMDNCRSSSSPYVSNAVQRDAPLEYDDSVQRLQVLENIMENNTQWLMKLENYIQDNMKKEMVEIQQNAVQNQTAVMIEIGTNLLNQTAEQTRKLTDVEAQVLNQTTRLELQLLEHSLSTNKLEKQILDQTSEINKLQDKNSFLEKKVLAMEDKHIIQLQSIKEEKDQLQVLVSKQNSIIEELEKKIVTATVNNSVLQKQQHDLMETVNNLLTMMSTSNSAKDPTVAKEEQISFRDCAEVFKSGHTTNGIYTLTFPNSTEEIKAYCDMEAGGGGWTIIQRREDGSVDFQRTWKEYKVGFGNPSGEYWLGNEFVSALTNQQRYVLKIHLKDWEGNEAYSLYEHFYLSSEELNYRIHLKGLTGTAGKISSISQPGNDFSTKDGDNDKCICKCSQMLTGGWWFDACGPSNLNGMYYPQRQNTNKFNGIKWYYWKGSGYSLKATTMMIRPADF
modifications: FLAG tag; Human Ang2 protein

Tests used:
[1] = system: U87MG cells; experiment: Ang2 dependent adhesion of U87MG cells to Ang2-coated wells (CellTiter-Glo luminescence); assay type: cell-based, human; conditions: for Ang2 dependent cell adhesion inhibition activity: Example 5.2, peptide 100 μg/ml, among the 41 peptides; for inhibition activity against the binding of Ang2 and integrin: FIG. 10, U87MG adhesion to Ang2-coated wells, each peptide 100 μg/ml
Experimental: A 96-well plate was treated with 100 μl of a solution obtained by diluting Ang2 (R&D systems; 623-AN-025/CF) in a phosphate buffered saline (PBS) at a concentration of 10 μg/ml and incubated at 4° C. for 16 hours so that the wells were coated with Ang2. Thereafter, the Ang2-coated 96 wells were washed twice with PBS, treated with 200 μl of PBS containing 2% (v/v) bovine serum albumin (BSA) and then incubated at a room temperature for 2 hours for blocking. For a negative control, wells that were blocked without Ang2 coating (i.e., treated with BSA only) were prepared.
150 μl of the thus obtained cell suspension was added to each well of the 96-well plate that was prepared by performing coating and blocking procedures and incubating the plate in a CO2 incubator at 37° C. for 2 hours to induce cell adhesion.
Then, the plate was washed 4 times with serum-free media that was warmed to 37° C. to remove cells that were not adhered. The adhesion level of cells was quantified by adding 200 μl of CellTiter-Glo reagent (Promega) diluted in IMDM at 1:1 and then, measuring luminescence at EnVision® Multilabel Reader (PerkinElmer) after 10 min.
When Ang2-coated plates were treated with U87MG cells in accordance with the same methods as in Example 1.1, they were co-treated with one of the 41 peptides derived from Ang2 set forth in Table 2 to investigate the inhibition effects of the peptides against the adhesion of U87MG cells (see FIG. 8). Each peptide was treated at a concentration of 100 μg/ml and the number of U87MG cells treated with each peptide was about 4×10^4. The measurement of cell adhesion level was carried out in the same manner as Example 1.1. That is, after the addition of 200 μl of CellTiter-Glo reagent (Promega) diluted in IMDM at 1:1, their luminescence was measured at EnVision® Multilabel Reader (PerkinElmer) after 10 min.
When Ang2-coated plates were treated with U87MG cells in accordance with the same methods as in Example 1.1, they were co-treated with the C-body produced in Example 8 to investigate inhibition effects of C-body treatment on the adhesion of U87MG cells. The C-body was treated at a concentration of 20 μg/ml or 5 μg/ml, and the number of U87MG cells used was about 4×10^4 at each concentration.

[2] = system: U87MG cells; experiment: U87MG cancer cell invasion in matrigel-coated transwell chamber; assay type: cell-based, human; conditions: 5 μg/ml in lower chamber, 48 hours; FIG. 14
Experimental: U87MG cells which underwent serum starvation for two days were detached using a cell dissociation solution (EDTA solution) and diluted in 0% serum IMDM media, and then 7.5×10^4 of the cells were each treated in an upper chamber of a matrigel-coated transwell chamber (24 wells, BD bioscience). Lower chambers were filled with a diluent obtained by diluting wild type Ang2 protein or its Q362A modified form (see Example 6) in 2% serum IMDM media at a concentration of 5 μg/ml. After 48 hours passed, the cells were dyed using calcein-AM solution (4 μg/ml; BD Biosciences) and observed using a fluorescence microscope to measure the number of the cells which invaded toward the bottom.
The left part of FIG. 14 indicates the number of the cells that migrated to the lower chambers, and the right part illustrates the observation results of fluorescence treatment of the cells which migrated to the lower chambers, using a fluorescence microscope. In FIG. 14, ‘−’ indicates a negative control where the lower chamber was not treated with Ang2 protein or its modified form.

[3] = molecular target: T1, Tie2 proteins (Q02763) (Homo sapiens, UniProt Q02763); experiment: ELISA: binding of Ang2 protein (wild type or Q362A) to coated Tie2; conditions: Tie2 coated ELISA plates; FIG. 12
T1 construct: purchased R&D systems
T1 sequence (Q02763 23-1124): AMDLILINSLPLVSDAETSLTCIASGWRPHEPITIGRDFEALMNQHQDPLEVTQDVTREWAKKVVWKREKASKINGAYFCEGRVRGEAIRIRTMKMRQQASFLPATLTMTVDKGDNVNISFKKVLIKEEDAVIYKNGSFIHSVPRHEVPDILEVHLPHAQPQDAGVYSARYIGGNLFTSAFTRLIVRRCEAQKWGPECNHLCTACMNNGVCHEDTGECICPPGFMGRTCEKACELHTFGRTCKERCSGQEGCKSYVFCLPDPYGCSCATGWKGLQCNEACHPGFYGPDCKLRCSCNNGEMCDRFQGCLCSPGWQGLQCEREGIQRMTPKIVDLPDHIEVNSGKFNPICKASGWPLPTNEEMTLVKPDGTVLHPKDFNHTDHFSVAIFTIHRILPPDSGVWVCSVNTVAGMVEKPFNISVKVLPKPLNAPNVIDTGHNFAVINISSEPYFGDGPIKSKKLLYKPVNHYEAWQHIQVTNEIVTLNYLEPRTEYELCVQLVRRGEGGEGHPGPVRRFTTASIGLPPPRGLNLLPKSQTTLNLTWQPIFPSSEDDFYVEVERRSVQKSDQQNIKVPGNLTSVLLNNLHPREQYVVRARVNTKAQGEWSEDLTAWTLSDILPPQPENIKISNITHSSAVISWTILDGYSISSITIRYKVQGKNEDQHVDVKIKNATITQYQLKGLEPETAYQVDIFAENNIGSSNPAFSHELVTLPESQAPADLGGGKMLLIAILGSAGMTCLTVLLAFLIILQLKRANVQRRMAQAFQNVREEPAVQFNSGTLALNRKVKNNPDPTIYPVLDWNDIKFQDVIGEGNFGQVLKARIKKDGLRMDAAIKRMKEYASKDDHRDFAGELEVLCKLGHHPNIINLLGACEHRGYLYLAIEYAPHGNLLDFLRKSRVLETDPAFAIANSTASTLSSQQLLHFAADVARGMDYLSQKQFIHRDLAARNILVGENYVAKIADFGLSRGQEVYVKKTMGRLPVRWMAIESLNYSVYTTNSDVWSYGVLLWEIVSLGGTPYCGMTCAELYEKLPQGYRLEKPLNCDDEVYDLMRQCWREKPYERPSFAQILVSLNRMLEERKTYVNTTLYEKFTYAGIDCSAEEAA
Source text: The Y axis represents binding levels of each Ang2 protein to coated Tie2 or negative control BSA.

[4] = molecular target: T2, integrin (αVβ3) (Homo sapiens, UniProt P05106+P06756); experiment: ELISA: binding of Ang2 protein (wild type or Q362A) to coated integrin; conditions: 5 μg/ml protein, FIG. 11
T2 construct: purchased R&D systems
T2 sequence (P06756 31-889 limits assumed): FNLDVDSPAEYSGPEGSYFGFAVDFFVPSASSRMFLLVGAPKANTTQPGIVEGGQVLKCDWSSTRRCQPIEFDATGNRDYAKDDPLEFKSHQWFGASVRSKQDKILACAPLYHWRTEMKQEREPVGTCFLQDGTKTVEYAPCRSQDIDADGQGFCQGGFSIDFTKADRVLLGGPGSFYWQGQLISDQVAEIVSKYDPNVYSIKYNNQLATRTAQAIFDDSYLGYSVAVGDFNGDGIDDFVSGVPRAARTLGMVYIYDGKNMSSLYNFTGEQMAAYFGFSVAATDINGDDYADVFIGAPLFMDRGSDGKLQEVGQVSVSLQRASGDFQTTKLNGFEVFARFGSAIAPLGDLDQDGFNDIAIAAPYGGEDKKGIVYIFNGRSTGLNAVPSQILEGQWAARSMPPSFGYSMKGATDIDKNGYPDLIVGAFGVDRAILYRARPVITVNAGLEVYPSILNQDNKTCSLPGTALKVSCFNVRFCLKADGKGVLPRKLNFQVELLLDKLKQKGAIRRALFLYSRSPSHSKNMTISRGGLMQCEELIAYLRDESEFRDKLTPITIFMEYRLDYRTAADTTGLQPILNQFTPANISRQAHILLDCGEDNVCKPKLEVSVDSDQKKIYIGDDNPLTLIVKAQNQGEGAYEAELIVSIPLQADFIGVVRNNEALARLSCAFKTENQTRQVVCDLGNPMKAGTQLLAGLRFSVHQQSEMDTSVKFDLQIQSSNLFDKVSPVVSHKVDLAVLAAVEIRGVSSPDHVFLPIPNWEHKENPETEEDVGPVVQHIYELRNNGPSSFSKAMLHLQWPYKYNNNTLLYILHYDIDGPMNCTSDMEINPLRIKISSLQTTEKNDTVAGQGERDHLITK
T2 sequence (P06756 891-992 partner limits assumed): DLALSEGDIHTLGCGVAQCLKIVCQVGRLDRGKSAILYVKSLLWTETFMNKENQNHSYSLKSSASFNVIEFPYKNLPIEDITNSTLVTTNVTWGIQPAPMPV
T2 sequence (P05106 27-718 limits assumed): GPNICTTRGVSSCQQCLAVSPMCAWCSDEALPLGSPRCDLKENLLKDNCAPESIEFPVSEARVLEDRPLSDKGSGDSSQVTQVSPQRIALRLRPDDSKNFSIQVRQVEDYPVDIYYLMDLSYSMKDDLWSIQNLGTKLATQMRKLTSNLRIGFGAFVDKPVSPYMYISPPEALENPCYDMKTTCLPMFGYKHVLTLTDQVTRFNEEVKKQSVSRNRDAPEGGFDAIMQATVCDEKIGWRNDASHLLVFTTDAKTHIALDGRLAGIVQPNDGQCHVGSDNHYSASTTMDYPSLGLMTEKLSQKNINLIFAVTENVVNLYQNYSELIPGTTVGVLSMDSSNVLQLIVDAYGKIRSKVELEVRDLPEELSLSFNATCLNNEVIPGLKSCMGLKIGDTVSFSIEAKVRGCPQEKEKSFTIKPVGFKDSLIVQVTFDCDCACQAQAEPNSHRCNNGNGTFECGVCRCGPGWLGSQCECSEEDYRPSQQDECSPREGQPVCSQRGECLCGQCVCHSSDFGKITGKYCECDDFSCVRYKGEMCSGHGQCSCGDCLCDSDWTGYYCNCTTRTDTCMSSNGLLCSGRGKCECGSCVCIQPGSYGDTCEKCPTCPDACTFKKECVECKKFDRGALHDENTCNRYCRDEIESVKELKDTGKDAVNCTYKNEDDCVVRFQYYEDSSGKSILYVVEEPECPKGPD
Experimental: After an ELISA plate was coated with diluents obtained by diluting 3 kinds of integrin proteins (alpha5beta1 (α5β1; α5: NCBI Accession No. P08648, β1: NCBI Accession No. P05556), alphaVbeta1 (αVβ1; αV: NCBI Accession No. P06756, β1: NCBI Accession No. P05556), and alphaVbeta3 (αVβ3; αV: NCBI Accession No. P06756, β3: NCBI Accession No. P05106); R&D systems)) in PBS at a concentration of 5 μg/ml (18 hours, 4° C.), it was blocked with 1% (v/v) BSA at a room temperature for 2 hours. Thereafter, it was treated with Ang2 protein having FLAG sequences (DYKDDDDK, Sigma) tagged at its N-terminal (FLAG-Ang2, 0.1 ml of Ang2 protein solution diluted in PBS at a concentration of 10 μg/ml), incubated at a room temperature for 2 hours, and washed 5 times with PBS-t (0.1% (v/v) triton X-100 in PBS). Then, it was followed by the addition of anti-FLAG antibody (Sigma) conjugated with horse radish peroxidase (HRP) and washed 5 times with PBS-t. Binding between Ang2 and 3 kinds of the integrins was verified indirectly by measuring the quantity of anti-FLAG antibody remaining in the ELISA plate through color development reaction using TMB (3,3,5,5-tetramethylbenzidine) as a substrate of HRP. As a negative control, one plate which was blocked without Ang2 protein treatment (BSA treatment only) was used. […]

Molecule | inhibition activity against the binding of Ang2 and integrin [1] | other results
EYWLG NEFVS QLTNQ (EYWLGNEFVSQLTNQ; Synthetic Peptide 15) [SEQ ID No. 15, 15 consecutive amino acids (352 to 366) of the Ang2 protein] | remarkably high inhibition activity | Ang2 dependent cell adhesion inhibition activity ([1]; listed as 15): best Ang2 dependent cell adhesion inhibition activity; Ang2 dependent cell adhesion inhibition activity ([1]; listed as Peptide 15): excellent Ang2-dependent cell adhesion inhibition activity
HTTNG IYTLT FPNST (HTTNGIYTLTFPNST; Synthetic Peptide 3) [SEQ ID No. 3] | remarkably high inhibition activity; also recorded: excellent integrin-Ang2 binding inhibition activity | –
IYTLT FPNST EEIKA (IYTLTFPNSTEEIKA; Synthetic Peptide 4) [SEQ ID No. 4] | remarkably high inhibition activity; also recorded: excellent integrin-Ang2 binding inhibition activity | –
LNYRI HLKGL TGTAG (LNYRIHLKGLTGTAG; Synthetic Peptide 24) [SEQ ID No. 24] | remarkably high inhibition activity | –
NEFVS QLTNQ QRYVL (NEFVSQLTNQQRYVL; Synthetic Peptide 16) [SEQ ID No. 16] | remarkably high inhibition activity | –
QLTNQ QRYVL KIHLK (QLTNQQRYVLKIHLK; Synthetic Peptide 17) [SEQ ID No. 17] | remarkably high inhibition activity | –
WKGSG YSLKA TTMMI (WKGSGYSLKATTMMI; Synthetic Peptide 40) [SEQ ID No. 40] | remarkably high inhibition activity | –
B1 | – | induction level of cancer cell invasion compared with wild type Ang2 protein [2]: remarkably low induction level of cancer cell invasion (approximately half or so); binding level to Tie2 compared with wild type Ang2 [3]: did not show any significant differences; binding level to integrin relative to wild type Ang2 [4]: ≤ 50%; inhibition of Ang2-integrin binding by Q362A modification [4]: ≥ 50%
